Test results: US20230321123A1, “INHIBITORS OF PSEUDOMONAS AERUGINOSA VIRULENCE FACTOR LasB” (Helmholtz-Zentrum Für Infektionsforschung GmbH, priority 2020, published 2023)
Read-outs that look alike come from different tables or passages of the source.

Key:
[1] = biological target: LasB (Pseudomonas aeruginosa, UniProt Q02RJ6); test: biochemical; parameters: species or system P. aeruginosa
[2] = biological target: MMP-3 (Homo sapiens, UniProt P08254); test: Selectivity against human off-targets: MMP-3; format: biochemical; settings: at 100 μM; read-out: Inhibition [%] MMP-3
Source text: (§1) The inhibition of zinc-containing human enzymes is described frequently for LasB inhibitors and poses a serious difficulty in the development of selective compounds. Particularly, the inhibition of matrix metalloproteases (MMPs) should be avoided. To further investigate this issue, three derivatives (the compounds of examples 1, 5 and 8) have been tested for their selectivity against several human off-targets, including six MMPs, ADAM17 (TACE), HDAC-3 and HDAC-8 (Table 4). The selectivity of the compounds is particularly high for MMPs and HDACs, whereas the inhibition of ADAM17 was considerably stronger.

[3] = biological target: ADAM17 (TACE) (Homo sapiens, UniProt P78536); test: Selectivity against human off-targets: ADAM17 (TACE); format: biochemical; settings: read-out: IC50 ADAM17 (TACE)
[4] = biological target: HDAC-3 (Homo sapiens, UniProt O15379); test: Selectivity against human off-targets: HDAC-3; format: biochemical; settings: read-out: IC50 HDAC-3
Source text: as §1

[5] = biological target: T1, HDAC-8 (Homo sapiens, UniProt Q9BY41); test: Selectivity against human off-targets: HDAC-8; format: biochemical; settings: read-out: IC50 HDAC-8
T1 sequence (Q9BY41 1-377): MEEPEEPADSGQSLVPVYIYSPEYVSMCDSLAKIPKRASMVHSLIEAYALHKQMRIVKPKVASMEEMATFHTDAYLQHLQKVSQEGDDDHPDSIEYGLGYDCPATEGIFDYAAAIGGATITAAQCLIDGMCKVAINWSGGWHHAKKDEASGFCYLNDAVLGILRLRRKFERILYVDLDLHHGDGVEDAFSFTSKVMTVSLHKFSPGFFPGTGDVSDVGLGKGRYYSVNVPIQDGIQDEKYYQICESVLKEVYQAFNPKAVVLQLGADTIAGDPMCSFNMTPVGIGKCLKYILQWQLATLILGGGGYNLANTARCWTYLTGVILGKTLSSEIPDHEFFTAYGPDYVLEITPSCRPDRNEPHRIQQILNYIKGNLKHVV
Source text: as §1

[6] = Cytotoxicity HepG2; format: cell-based; settings: human
Procedure: (§2) The compounds of examples 1 and 5 were not toxic against the cell lines HepG2, HEK293 and A549 (Table 5). Additionally, the inhibitory effect against P. aeruginosa PA14 was evaluated to exclude an antibacterial effect of the compounds of the present invention. This is important as it was the aim to target virulence and not viability of the bacteria. […]

[7] = Cytotoxicity HEK293; format: cell-based; settings: human
Procedure: as §2

[8] = Cytotoxicity A549; format: cell-based; settings: human
Procedure: as §2

[9] = test system: P. aeruginosa PA14; test: PA14 inhibition (MIC, antibacterial effect); format: cell-based; settings: Pseudomonas aeruginosa, PA14; read-out: MIC PA14
Procedure: as §2

[10] = biological target: T2, MMP-1 (Homo sapiens, UniProt P03956); test: Selectivity against human off-targets: MMP-1; format: biochemical; settings: at 100 μM; read-out: Inhibition [%] MMP-1
T2 sequence (P03956 100-469): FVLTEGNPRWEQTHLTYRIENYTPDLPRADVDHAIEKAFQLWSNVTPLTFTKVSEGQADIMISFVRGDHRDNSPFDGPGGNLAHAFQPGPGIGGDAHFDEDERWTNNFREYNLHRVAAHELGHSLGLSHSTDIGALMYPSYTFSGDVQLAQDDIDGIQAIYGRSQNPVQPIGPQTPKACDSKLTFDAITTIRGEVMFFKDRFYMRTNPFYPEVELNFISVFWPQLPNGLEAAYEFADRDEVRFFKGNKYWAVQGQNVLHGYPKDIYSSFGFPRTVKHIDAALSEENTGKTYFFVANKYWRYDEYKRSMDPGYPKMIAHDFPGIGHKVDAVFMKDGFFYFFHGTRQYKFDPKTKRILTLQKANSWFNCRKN
Source text: as §1

[11] = biological target: T3, MMP-2 (Homo sapiens, UniProt P08253); test: Selectivity against human off-targets: MMP-2; format: biochemical; settings: at 100 μM; read-out: Inhibition [%] MMP-2
T3 sequence (P08253 110-660): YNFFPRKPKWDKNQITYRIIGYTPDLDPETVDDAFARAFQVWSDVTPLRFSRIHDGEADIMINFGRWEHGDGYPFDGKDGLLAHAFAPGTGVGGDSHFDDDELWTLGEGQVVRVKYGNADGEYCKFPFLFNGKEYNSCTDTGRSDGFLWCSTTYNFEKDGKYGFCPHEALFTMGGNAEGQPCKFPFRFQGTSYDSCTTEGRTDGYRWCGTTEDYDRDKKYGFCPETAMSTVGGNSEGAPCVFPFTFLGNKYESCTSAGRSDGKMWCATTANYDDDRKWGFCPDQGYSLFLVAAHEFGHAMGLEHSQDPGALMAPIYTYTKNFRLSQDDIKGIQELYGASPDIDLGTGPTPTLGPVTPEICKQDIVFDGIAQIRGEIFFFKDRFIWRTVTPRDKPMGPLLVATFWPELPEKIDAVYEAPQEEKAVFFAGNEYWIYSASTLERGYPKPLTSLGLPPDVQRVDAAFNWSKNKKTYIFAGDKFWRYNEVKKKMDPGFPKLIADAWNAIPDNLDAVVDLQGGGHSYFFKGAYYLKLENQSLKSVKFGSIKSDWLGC
Source text: as §1

Sequence of LasB (Q02RJ6 198-498): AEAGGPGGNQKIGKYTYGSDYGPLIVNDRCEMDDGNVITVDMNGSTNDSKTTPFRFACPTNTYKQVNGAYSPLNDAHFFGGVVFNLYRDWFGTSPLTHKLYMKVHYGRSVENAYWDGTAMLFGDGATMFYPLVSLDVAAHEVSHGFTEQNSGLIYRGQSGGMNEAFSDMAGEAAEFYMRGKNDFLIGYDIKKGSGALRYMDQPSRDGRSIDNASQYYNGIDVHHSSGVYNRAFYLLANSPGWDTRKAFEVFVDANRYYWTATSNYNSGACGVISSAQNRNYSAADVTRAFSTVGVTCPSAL
Sequence of MMP-3 (P08254 100-477): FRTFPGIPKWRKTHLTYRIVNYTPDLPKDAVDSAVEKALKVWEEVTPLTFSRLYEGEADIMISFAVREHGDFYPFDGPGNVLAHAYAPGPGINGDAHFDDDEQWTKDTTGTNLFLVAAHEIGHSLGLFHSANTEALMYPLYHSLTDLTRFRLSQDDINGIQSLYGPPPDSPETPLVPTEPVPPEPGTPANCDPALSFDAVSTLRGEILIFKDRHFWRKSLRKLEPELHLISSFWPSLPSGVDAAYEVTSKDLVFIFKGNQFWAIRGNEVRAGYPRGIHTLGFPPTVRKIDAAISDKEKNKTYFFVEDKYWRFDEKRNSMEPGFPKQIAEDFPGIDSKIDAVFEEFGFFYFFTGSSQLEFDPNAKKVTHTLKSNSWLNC
Sequence of HDAC-3 (O15379 whole entry): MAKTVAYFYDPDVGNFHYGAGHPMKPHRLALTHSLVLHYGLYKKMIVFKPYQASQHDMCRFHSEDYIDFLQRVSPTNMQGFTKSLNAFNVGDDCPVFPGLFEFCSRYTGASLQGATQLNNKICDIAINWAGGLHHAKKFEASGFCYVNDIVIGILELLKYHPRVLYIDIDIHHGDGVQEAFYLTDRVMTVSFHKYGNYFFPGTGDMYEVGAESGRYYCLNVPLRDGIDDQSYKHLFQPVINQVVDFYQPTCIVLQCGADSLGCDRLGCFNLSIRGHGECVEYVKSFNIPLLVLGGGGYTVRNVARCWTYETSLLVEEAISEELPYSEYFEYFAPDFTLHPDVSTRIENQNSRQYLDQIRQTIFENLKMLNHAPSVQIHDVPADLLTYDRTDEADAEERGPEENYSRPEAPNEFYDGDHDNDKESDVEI
Sequence of HDAC-3 (Q9Y618 395-489 partner limits assumed): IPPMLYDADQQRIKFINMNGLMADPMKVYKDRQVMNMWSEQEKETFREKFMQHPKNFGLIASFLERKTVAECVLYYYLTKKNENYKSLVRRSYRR
Sequence of ADAM17 (TACE) (P78536 215-824): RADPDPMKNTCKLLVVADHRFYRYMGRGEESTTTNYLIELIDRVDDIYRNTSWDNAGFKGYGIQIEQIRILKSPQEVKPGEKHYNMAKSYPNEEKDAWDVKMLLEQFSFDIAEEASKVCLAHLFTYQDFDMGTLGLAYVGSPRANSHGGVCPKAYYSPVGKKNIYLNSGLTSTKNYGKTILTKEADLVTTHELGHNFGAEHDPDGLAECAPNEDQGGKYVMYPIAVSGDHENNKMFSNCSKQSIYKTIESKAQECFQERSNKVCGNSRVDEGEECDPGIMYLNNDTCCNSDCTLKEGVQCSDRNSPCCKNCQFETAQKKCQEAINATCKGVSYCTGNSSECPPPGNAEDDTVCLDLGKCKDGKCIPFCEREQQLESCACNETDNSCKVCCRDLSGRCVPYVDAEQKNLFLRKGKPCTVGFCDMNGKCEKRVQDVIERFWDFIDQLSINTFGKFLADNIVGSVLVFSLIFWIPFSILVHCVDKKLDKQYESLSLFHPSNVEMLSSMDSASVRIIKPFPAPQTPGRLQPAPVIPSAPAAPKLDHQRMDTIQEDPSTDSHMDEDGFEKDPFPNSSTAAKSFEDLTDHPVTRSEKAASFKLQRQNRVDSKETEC

`CC(C)CC(C(=O)N[C@@H](C(=O)Nc1ccc(Cl)c(Cl)c1)C(C)C)P(=O)(O)O` (stereo partly drawn) [Example 167] showed an IC50 ([1]; IC50 against LasB) of 0.011 µM.
Work on `CC(C)CC(C(=O)N1CCN(c2ccc(Cl)cc2)CC1)P(=O)(O)O` (stereo not drawn) [Example 101] yielded an IC50 ([1]; IC50 against LasB) of 1.45 ± 0.03 µM.
With `O=C(O)CC(S)C(=O)Nc1ccc(Cl)c(Cl)c1` (stereo not drawn) [Example 54] the IC50 ([1]; IC50 against LasB) was 3.9 ± 0.4 µM.
In the case of `CC(C)CC(C(=O)N[C@@H]1CCCN(Cc2ccc(Cl)cc2)C1)P(=O)(O)O` (stereo partly drawn) [Example 148], the IC50 ([1]; IC50 against LasB) is reported as 8.36 ± 0.26 µM.
`Cc1ccccc1NC(=O)C(S)Cc1ccccc1` (stereo not drawn) [Example 6] gave an IC50 ([1]; read-out: IC50 against LasB) of 2.4 ± 1 µM.
In the case of `O=C(Nc1ccccc1)C(S)Cc1ccc(O)cc1` (stereo not drawn) [Example 11], the IC50 ([1]; IC50 against LasB) is reported as 7.3 ± 0.5 µM.
In the case of `Cc1ccc(NC(=O)C(CC(C)C)n2ccnn2)cc1` (stereo not drawn) [Example 174, 4-Methyl-N-(p-tolyl)-2-(1H-1,2,3-triazol-1-yl)pentanamide], the IC50 ([1]; IC50 against LasB) is reported as 2.8 ± 0.1 µM, the inhibition at 100 µM [2] is reported as -3 ± 17% and the IC50 [3] is reported as > 100 µM. For the same molecule, the IC50 [4] was > 100 µM, the IC50 [5] was > 100 µM and the IC50 ([6]; HepG2) was > 100 µM. For the same molecule, the IC50 ([7]; HEK293) was > 100 µM, the IC50 ([8]; A549) was > 100 µM and the MIC [9] was > 100 µM.
With `CC(C)CC(C(=O)Nc1ccc(-c2ccc(Cl)cc2)nc1)P(=O)(O)O` (stereo not drawn) [Example 92] the inhibition at 100 µM [10] was < 10%, the inhibition at 100 µM [11] was 18% and the inhibition at 100 µM [2] was < 10%. For the same molecule, the IC50 ([6]; HepG2 cells) was > 100 µM, the IC50 ([7]; HEK293 cells) was > 100 µM and the IC50 ([8]; A549 cells) was > 100 µM. For the same molecule, the MIC [9] was > 100 µM.
Molecule `COc1ccc(NC(=O)C(S)CC2CC2)cc1` (stereo not drawn) [Example 46] has an IC50 ([1]; IC50 against LasB) of 3.9 ± 0.6 µM.
`CC(C)CC(C(=O)N[C@H](CC(=O)Nc1ccc(Cl)c(Cl)c1)C(C)C)P(=O)(O)O` (stereo partly drawn) [Example 168] gave an IC50 ([1]; IC50 against LasB) of 1.76 ± 0.03 µM.
`CC(C)C[C@@H](C(=O)N[C@@H](Cc1cccnc1)C(=O)Nc1ccc(Cl)c(Cl)c1)P(=O)(O)O` [Example 159] showed an IC50 ([1]; IC50 against LasB) of 1.5 ± 0.06 µM.
For `Cc1ccc(NC(=O)C(CC(C)C)P(=O)(O)O)c(C)c1` (stereo not drawn) [Example 69], the IC50 ([1]; IC50 against LasB) was 0.084 ± 0.003 µM.
`CC(C)CC(C(=O)Nc1cnc(Br)nc1)P(=O)(O)O` (stereo not drawn) [Example 87] showed an IC50 ([1]; IC50 against LasB) of 0.384 ± 0.002 µM.
For `O=C(Nc1ccccc1)C(S)Cc1ccc(O)c([N+](=O)[O-])c1` (stereo not drawn) [Example 12], the IC50 ([1]; read-out: IC50 against LasB) was 2.5 ± 0.1 µM.
For `CCCCC(S)C(=O)Nc1ccc(Cl)c(Cl)c1` (stereo not drawn) [Example 29], the IC50 ([1]; IC50 against LasB) was 6.8 ± 1.1 µM.
Molecule `CC(C)CC(C(=O)Nc1ccc(Cl)cn1)P(=O)(O)O` (stereo not drawn) [Example 82] has an IC50 ([1]; IC50 against LasB) of 0.501 ± 0.039 µM.
